Measured values as given in patent US9724537B2, “Abnormal electrical conduction blocking apparatus using photodynamic therapy (PDT)” (Keio University, priority 2006, dated 2017).

Experiments:
[1] = tested on: rat atrioventricular node; experiment: Atrioventricular block experiment by PDT in in vivo system; parameters: species or system Wistar rat
Method: Wistar rats (male, 8 weeks old) were anesthetized by inhalation of diethyl ether, four limbs and front teeth were fixed, a tube was inserted into the bronchial tube, and an artificial ventilator (Natsume Seisakusho Co., Ltd.) and a forane vaporizer anesthesia apparatus (Shinano Instrument, Co., Ltd.) were introduced into the body. Thoracotomy was performed between the right chest rib, and the experiment was performed while the heart was exposed.
A solution obtained by dissolving Laserphyrin in 5 ml of physiological saline was administered to venous blood from the right ventricular cavity. The photosensitizer dose (D) and the interval to photoradiation in each experiment were as follows.
Experiment 1: D=2 mg/kg, laser irradiation at interval of 5 and 60 min
Experiment 2: D=10 mg/kg, laser irradiation at interval of 2 and 30 min
A semiconductor laser beam (SONY, wavelength peak, 670 nm band) was transmitted using a quartz fiber with a laser intensity of 500 mW/cm^2 at the end. The end was attached to a portion in the vicinity of the base of the aorta, and photoradiation was performed towards the atrioventricular node (existing in a portion approx. 3 mm deep from the surface) in the right atrial inner wall for 10 min with the total dose of laser irradiation of 300 J/cm^2 (FIG. 30).
A needle electrode was inserted into four limbs of a rat, electrocardiogram leads I, II, and III were induced with an electrocardiograph (Nihon Kohden Corporation), and signals were recorded using a biosignal recording/analyzing apparatus and analyzed (FIG. 31). FIG. 31 is a schematic view showing an in vivo experimental system.
After completion of the experiment, the rat chest was closed and sutured. Then, a normal feed and water were given and allowed to survive, and anesthetized again at approx. 2 weeks so that electrocardiography should be performed.
The heart sample of Experiment 1 was isolated after electrocardiography at 2 weeks (the isolation method was the same as in Example 6), 4% paraformaldehyde was introduced from the coronary artery, and the perfusion-fixed sample was immersed in approx. 40 ml of the solution and left on a mix roller overnight. Then, a HE sample and an Azan stained specimen at a laser irradiation site were prepared and observed under a microscope.

[2] = Fluorescence observation of photosensitizer distribution in rat cardiac muscle tissue over time; format: in vivo, Wistar rat; conditions: 2 mg/kg i.v.
Method: As a tissue, the right ventricular free wall isolated from a Wistar rat (male, 8 to 10 weeks old) was used. Immediately after animals were allowed to inhale vaporized diethyl ether, heparin and Nembutal (0.2 and 0.5 ml, respectively) were administered intraperitoneally at a dose of 2 mg/kg, and a solution of Laserphyrin (Meiji Seika Kaisha, Ltd.) dissolved in physiological saline at a dose of 0.5 ml were intravenously injected from the lower extremity vena cava. The heart was isolated at 5 min (Experiment 1), 30 min (Experiment 2), and 60 min (Experiment 3) after injection, and the target tissue was ablated. […] As a sample for fluorescence observation, a cross-section of the above-mentioned tissue was excised in a thickness of 10 μm using a freezing microtome in the direction in which the base and the apex of the heart are aligned, placed on a slide glass, and dried for one or two days.
A light of a mercury lamp (Olympus Corporation) was attenuated with an ND filter (Olympus Corporation, 12%), and only a light in the 400-nm band was extracted with a band path filter (Olympus Corporation) and delivered to the sample as an excitation light. Fluorescence of the photosensitizer was selectively extracted with a dichroic mirror (OMEGA, 636 nm-) and a band path filter (OMEGA, 695 nm; half bandwidth, 27.5 nm) and photographed with a CCD camera. […]

[3] = Pharmacokinetics of talaporfin sodium, rat plasma; format: in vivo; conditions: intravenous
Method: FIG. 45 is a graph showing changes in plasma concentrations after intravenous injection to rats at various doses (10, 5, 2, 1 mg/kg) and to humans at 1 mg/kg over time, using data in pharmacology studies and clinical studies with talaporfin sodium. In rats, the average of the mean plasma concentrations measured at 47 min, which was the average of the half-lives from 2 to 60 min after intravenous injection at a dose of 10 mg/kg, and at 5 min was used as true values, and concentration changes were calculated until 60 min. Furthermore, a straight line was drawn between the value at 60 min and the value at 120 min calculated using the average of the plasma concentrations measured at 9.6 h, which was the average of the half-lives from 2 to 24 h after intravenous injection, and at 24 h as a true value. Changes at each dose were calculated assuming that the plasma concentration changed in proportion to the dose.

in vivo = conditions: rat, half-life of photosensitizer concentration in the heart
Method: FIG. 46 is a graph showing changes in the photosensitizer concentration in the rat heart at doses of 5 and 2 mg/kg together with changes in plasma concentration in rats and humans.

[4] = human; intravenous injection 1 mg/kg; cited from earlier work
[5] = Experiment 2: 10 mg/kg, 300 J/cm^2
[6] = Experiment 2: 10 mg/kg, interval 30 min, 300 J/cm^2

Q: With C=Cc1c(C)c2cc3nc(c(CC(=O)N[C@@H](CC(=O)O)C(=O)O)c4[nH]c(cc5nc(cc1[nH]2)C(C)=C5CC)c(C)c4C(=O)O)[C@@H](CCC(=O)O)[C@@H]3C [talaporfin sodium, mono-L-aspartyl chlorine 6] as the molecule, how does the “electrocardiogram after 2 weeks” value ([1]; Experiment 1: 2 mg/kg, 300 J/cm^2) read?
A: the 2:1 atrioventricular block disappeared, and a normal atrioventricular conduction was confirmed

Q: What about the “histology (Azan stain) at laser irradiation site at 2 weeks” value ([1]; Experiment 1: 2 mg/kg, 300 J/cm^2, FIG. 36) of the same molecule?
A: a scar tissue (a damaged cellular tissue was replaced with the surrounding collagenic fibers) is observed

Q: What about the “atrioventricular block (electrocardiogram)” value ([1]; Experiment 1: 2 mg/kg, interval 5 min, 300 J/cm^2) of the same molecule?
A: an atrioventricular block disappeared during the process of photoradiation

Q: What about the “atrioventricular block (electrocardiogram) after photoradiation” value ([1]; Experiment 1: 2 mg/kg, interval 60 min, 300 J/cm^2) of the same molecule?
A: 2:1 atrioventricular block

Q: And the “completeness of conduction block” value ([1]; Experiment 1, laser irradiation dose 300 J/cm^2)?
A: the conduction block was incomplete

Q: And the “electrocardiogram at 2 weeks” value [1, 5]?
A: a finding of a complete atrioventricular block

Q: What about the “time the conduction block effect by PDT was maintained” value [1, 5] of the same molecule?
A: 2 weeks

Q: And the “atrioventricular block (electrocardiogram)” value ([1]; Experiment 2: 10 mg/kg, interval 2 min, 300 J/cm^2)?
A: a 2:1 atrioventricular block occurred, but was resolved thereafter

Q: And the “atrioventricular block (electrocardiogram)” value [1, 6]?
A: a 2:1 atrioventricular block and a complete atrioventricular block occurred from immediately after photoradiation

Q: And the “electrocardiogram finding after completion of photoradiation” value [1, 6]?
A: extrasystoles of the ventricle were observed

Q: And the “photosensitizer distribution in cardiac muscle tissue” value ([2]; 30 and 60 min after injection)?
A: white streaks were observed all over the images at 30 and 60 min, showing the existence of the photosensitizer in the surroundings

Q: What about the “photosensitizer distribution in cardiac muscle tissue” value ([2]; approx. 5 min after injection) of the same molecule?
A: almost no photosensitizer was present immediately after the intravenous injection

Q: What about the concentration at 30 min ([3]; conditions of Experiment 3 (2 mg/kg, interval 30 min)) of the same molecule?
A: 24000 ng/mL

Q: What about the concentration at 60 min ([3]; conditions of Experiment 4 (2 mg/kg, interval 60 min)) of the same molecule?
A: 16000 ng/mL

Q: What about the half-life (in vivo; 0 to 60 min) of the same molecule?
A: 1.08 h

Q: And the half-life (in vivo; later phase)?
A: 13.3 h

Q: And the “early average half-life in plasma” value [4]?
A: 14.6 h

Q: What about the “plasma concentration at 10 min” value [4] of the same molecule?
A: 27000 ng/mL
